Assay results as given in US8399024B2, “Water-insoluble medicine” (Ebara Corporation, priority 2006, dated 2013).
Counter-ions that a name gives are not always drawn. Like-named read-outs stand apart in the source and are kept apart here.

Legend:
MCF-7 tumor cells = assay: Cytotoxicity test, viable cell count with Cell Counting Kit-8 (WST-8); type: cell-based; details: read-out: 50% inhibiting activity
Description: Ellipticine which had been size-reduced by laser beam irradiation (concentration: 2 μg/ml) was diluted with the below-mentioned culturing solution, and test samples having concentrations of 1 μg/ml, 0.5 μg/ml, 0.25 μg/ml and 0.125 μg/ml were prepared. MCF-7 (MEM-culture medium) and L-1210 (RPMI-1640 culture medium) tumor cells were used as target cells. The cytotoxicity was evaluated by counting the number of viable cells following 24 hours of culturing, using Cell Counting Kit-8. More specifically, WST-8 (U.S. Pat. No. 2,757,348) as an indicate for dehydrogenase activities was used, and the color at 450 nm was evaluated. Viability(%)=(Asamples−Ablank)/(Ano-samples−Ablank) 100%
(§1) The cytotoxicity of the SN-38 nano particles was evaluated by counting the number of viable cells following 24 hours of culturing in the same manner as in the cytotoxicity test of ellipticine as described in item (3-4) of Example 1. The 50% inhibiting activity for MCF-7 cells was 100 nM.
as §1, with “10-hydroxy-camptothecin” for “SN-38”, “72” for “24”

[1] = Influence of the drug on the host: change in weight and symptoms (Example 3); type: in vivo, BALB/cAJcl-nu nude mouse; details: 60 mg/kg i.v. d7, d11, d14
Description: The experiment was ended after 4 weeks from the starting day of administration. The tumor cell diameter was measured twice a week, and the weight was measured at the time of administration, so as to monitor the state of tumor cell proliferation and effect of drug administration, as well as any other physical changes. The mice were kept in a small vinyl isolator throughout the experiment, except for when they were moved to a clean bench through a sleeve to perform tumor cell transplantation, administration or weight measurement.
The influence of the drug on the host was evaluated by considering the change in weight and the expression of symptoms.

[2] = tested on: human gastric cancer H-23 (moderately differentiated-type adenocarcinoma); assay: Anti-tumor effect using nude mice-transplanted human tumor (Example 2); type: in vivo, BALB/cAJcl-nu nude mouse; details: 60 mg/kg i.v. q4d×4, final day d35
[3] = tested on: human gastric cancer H-23 (moderately differentiated-type adenocarcinoma); assay: Anti-tumor effect using nude mice-transplanted human tumor (Example 3); details: 60 mg/kg i.v. d7, d11, d14

For CCc1c2c(nc3ccc(O)cc13)-c1cc3c(c(=O)n1C2)COC(=O)[C@]3(O)CC [DMSO solution of SN-38, 7-ethyl-10-hydroxycamptothecin], the IC50 (MCF-7 tumor cells; MCF-7, 24 hours of culturing) was 500 nM.
With CCc1c2c(nc3ccc(OC(=O)N4CCC(N5CCCCC5)CC4)cc13)-c1cc3c(c(=O)n1C2)COC(=O)[C@]3(O)CC [CPT-11, irinotecan hydrochloride] the body state [1] was “not good”, the “maximum weight loss (max. wt. loss)” value [1] was 0.4% and the drug effect evaluation [2] was “non-effective (IR of below 58%)”. The “evaluation of max. IR” value ([3]; d18) was “effective (IR≧58%)”, the “max. IR” value ([3]; d18) was 69.0% and the drug effect evaluation ([3]; d21) was “non-effective (IR of below 58%)”. For the same compound, the drug effect evaluation ([3]; final day d35) was “non-effective (IR of below 58%)”.
Compound CC[C@@]1(O)C(=O)OCc2c1cc1n(c2=O)Cc2cc3cc(O)ccc3nc2-1 [DMSO solution of 10-hydroxy-camptothecin, 10-hydroxy-camptothecin] has an IC50 (MCF-7 tumor cells; MCF-7, 72 hours of culturing) of 100 nM.
